Measurements taken from patent US7855290B2, “Pyridine derivatives and pyrimidine derivatives (3)” (Eisai R&D Management Co., Ltd., priority 2005, dated 2010).

target: T1, His6-HGFR (HGFR cytoplasmic domain) (Homo sapiens, UniProt P08581); assay: Inhibitory activity against HGFR tyrosine kinase activity (HTRF); assay type: biochemical; details: biotin-poly(GT), ATP, 30° C. 10 min
T1 construct: made in house; host or cells: Sf9 insect cells (Spodoptera frugiperda), baculovirus, pFastBac-HT vector
T1 sequence (P08581 956-1390 limits assumed): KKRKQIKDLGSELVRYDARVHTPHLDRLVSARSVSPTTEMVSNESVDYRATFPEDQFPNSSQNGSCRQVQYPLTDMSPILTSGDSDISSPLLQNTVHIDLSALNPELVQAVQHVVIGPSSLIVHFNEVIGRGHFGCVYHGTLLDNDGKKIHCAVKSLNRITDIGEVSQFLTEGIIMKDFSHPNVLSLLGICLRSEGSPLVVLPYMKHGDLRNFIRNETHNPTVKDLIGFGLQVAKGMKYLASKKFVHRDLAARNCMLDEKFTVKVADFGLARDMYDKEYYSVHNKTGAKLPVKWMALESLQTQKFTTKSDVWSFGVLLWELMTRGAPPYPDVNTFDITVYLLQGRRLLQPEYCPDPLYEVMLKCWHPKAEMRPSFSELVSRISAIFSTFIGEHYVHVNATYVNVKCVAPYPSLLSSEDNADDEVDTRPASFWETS
Description: The cytoplasmic domain of HGFR (Genbank Accession No. J02958) is a 1.3 kb DNA fragment beginning with Lys974 and including a stop codon, and described by Park et al. (Proc. Natl. Acad. Sci. U.S.A. 84(18), 6379-6383, 1987). The DNA fragment was isolated from the human placental cDNA library (purchased from Clontech) by PCR (TaKaRa Ex Taq™ Kit, purchased from TaKaRa) using two kinds of primers (SEQ ID NO: 1,5′-[…]-3′ and SEQ ID NO: 2,5′-[…]-3′, purchased from Invitrogen). The DNA fragment was cloned into a baculovirus transplace vector (pFastBac™-HT (purchased from GIBCO BRL)) to produce a recombinant construct. […] EGFR was purchased from Sigma (Production No. E-2645).
To the suspension of Sf9 cells (3×10^8 cells) in SF-900II medium (purchased from Invitrogen) containing 2% FBS was added a solution of HGFR transfected baculovirus above (4 ml), followed by a shaking culture at 27° C. for 48 hrs. The cells infected with the HGFR transfected baculovirus were centrifuged at 1,000 rpm, 4° C. for 5 min to remove the supernatant. The precipitated infected cells were suspended in 80 ml of ice-cold PBS, and centrifuged at 1,000 rpm, 4° C. for 5 min to remove the supernatant. The precipitated infected cells were suspended in 40 ml of ice-cold Lysis Buffer (50 mM Tris-HCl (pH 8.5), 5 mM 2-mercaptoethanol, 100 mM KCl, 1 mM PMSF and 1% (v/v) NP-40). The suspension was centrifuged at 12,000 rpm, 4° C. for 30 min to provide a supernatant.
The supernatant was loaded onto an Ni-NTA agarose column (3 ml, purchased from Qiagen) equilibrated with 30 ml of Buffer A (20 mM Tris-HCl (pH 8.5), 5 mM 2-mercaptoethanol, 500 mM KCl, 20 mM imidazole and 10% (v/v) glycerol). The column was washed with 30 ml of Buffer A, 6 ml of Buffer B (20 mM Tris-HCl (pH 8.5), 5 mM 2-mercaptoethanol, 1 M KCl, and 10% (v/v) glycerol) and 6 ml of Buffer A in this order. Then, the column was eluted with 6 ml of Buffer C (20 mM Tris-HCl (pH 8.5), 5 mM 2-mercaptoethanol, 100 mM KCl, 100 mM imidazole, and 10% (v/v) glycerol) to provide a fraction. The fraction was entrapped in a dialysis membrane (purchased from Spectrum Laboratories), dialyzed at 4° C. overnight with 1 L of dialysis buffer (20 mM Tris-HCl (pH 7.5), 10% (v/v) glycerol, 1 mM dithiothreitol, 0.1 mM Na3VO4 and 0.1 mM EGTA), and stored at −80° C. until used. […] The VEGFR2 cytoplasmic domain, the FGFR1 cytoplasmic domain, and the PDGFRβ cytoplasmic domain were fused with six histidine at the N terminus by the similar method to produce respective recombinant proteins (His6-VEGFR2, His6-FGFR1, and His6-PDGFRβ).
To each well of a 96-well round plate (purchased from NUNC, Production No. 163320) were added 10 μl of a solution for kinase reaction (200 mM Hepes (pH 7.4), 80 mM MgCl2, 16 mM MnCl2 and 2 mM Na3VO4), 250 ng of biotinylated poly(Glu4: Tyr1) (biotin-poly(GT), purchased from Japan Schering) (6 μl, 15-fold diluted with distilled water), 30 ng of His6-HGFR (10 μl, 60-fold diluted with 0.4% BSA) and a test substance dissolved in dimethylsulfoxide (4 μl, 100-fold diluted with 0.1% BSA) to mess up to 30 μl. To the well was added 10 μl of 4 μM ATP (purchased from Sigma) diluted with distilled water to incubate at 30° C. for 10 min, followed by adding 10 μl of 500 mM EDTA (pH 8.0) (purchased from Wako Pure Chemicals) to provide a kinase reaction solution.
The tyrosine-phosphorylated biotin-poly(GT) was detected using the Homogenous Time-Resolved Fluorescence (HTRF) method (Analytical Biochemistry, 269, 94-104, 1999).

IC50 | SMILES
0.06 µM | CN(C)C1CN(C2CCN(C(=O)Nc3cc(Oc4ccc(NC(=O)C5(C(=O)Nc6ccc(F)cc6)CC5)c(F)c4)ccn3)CC2)C1 [Example 14, N-[4-({2-[({4-[3-(Dimethylamino)azetidin-1-yl]piperidin-1-yl}carbonyl)amino]pyridin-4-yl}oxy)-2-fluorophenyl]-N′-(4-fluorophenyl)cyclopropane-1,1-dicarboxamide]
0.064 µM | CN1CCC(N2CCN(C(=O)Nc3cc(Oc4ccc(NC(=O)C5(C(=O)Nc6ccc(F)cc6)CC5)c(F)c4)ccn3)CC2)CC1 [Example 16, N-(2-Fluoro-4-{[2-({[4-(1-methylpiperidin-4-yl)piperazin-1-yl]carbonyl}amino)pyridin-4-yl]oxy}phenyl)-N′-(4-fluorophenyl)cyclopropane-1,1-dicarboxamide]
0.048 µM | CN1CC(N2CCN(C(=O)Nc3cc(Oc4ccc(NC(=O)C5(C(=O)Nc6ccc(F)cc6)CC5)c(F)c4)ccn3)CC2)C1 [Example 17]
0.053 µM | CN(C)C1CCN(C(=O)Nc2cc(Oc3ccc(NC(=O)C4(C(=O)Nc5ccc(F)cc5)CC4)c(F)c3)ccn2)CC1 [Example 18, N-(4-{[2-({[4-(Dimethylamino)piperidin-1-yl]carbonyl}amino)pyridin-4-yl]oxy}-2-fluorophenyl)-N′-(4-fluorophenyl)cyclopropane-1,1-dicarboxamide]
0.061 µM | CN1CCC(N2CCN(C(=O)Nc3cc(Oc4ccc(NC(=O)C5(C(=O)Nc6ccc(F)cc6)CC5)cc4F)ccn3)CC2)CC1 [Example 19, N-(3-Fluoro-4-{[2-({[4-(1-methylpiperidin-4-yl)piperazin-1-yl]carbonyl}amino)pyridin-4-yl]oxy}phenyl)-N′-(4-fluorophenyl)cyclopropane-1,1-dicarboxamide]
0.059 µM | CN1CCN(C2CCN(C(=O)Nc3cc(Oc4ccc(NC(=O)C5(C(=O)Nc6ccc(F)cc6)CC5)cc4F)ccn3)CC2)CC1 [Example 20, N-(3-Fluoro-4-{[2-({[-4-(4-methylpiperazin-1-yl)piperidin-1-yl]-carbonyl}amino)pyridin-4-yl]oxy}phenyl)-N′-(4-fluorophenyl)cyclopropane-1,1-dicarboxamide]
0.062 µM | CN(C)C1CN(C2CCN(C(=O)Nc3cc(Oc4ccc(NC(=O)C5(C(=O)Nc6ccc(F)cc6)CC5)cc4F)ccn3)CC2)C1 [Example 21, N-[4-({2-[({4-[3-(Dimethylamino)azetidin-1-yl]piperidin-1-yl}carbonyl)amino]pyridin-4-yl}oxy)-3-fluorophenyl]-N′-(4-fluorophenyl)cyclopropane-1,1-dicarboxamide]
0.05 µM | CN1CC(N2CCN(C(=O)Nc3cc(Oc4ccc(NC(=O)C5(C(=O)Nc6ccc(F)cc6)CC5)cc4F)ccn3)CC2)C1 [Example 22, N-(3-Fluoro-4-{[2-({[4-(1-methylazetidin-3-yl)piperazin-1-yl]carbonyl}amino)pyridin-4-yl]oxy}phenyl)-N′-(4-fluorophenyl)cyclopropane-1,1-dicarboxamide]
0.045 µM | CN(C)C1CCN(C(=O)Nc2cc(Oc3ccc(NC(=O)C4(C(=O)Nc5ccc(F)cc5)CC4)cc3F)ccn2)CC1 [Example 23, N-(4-{[2-({[4-(Dimethylamino)piperidin-1-yl]carbonyl}amino)pyridin-4-yl]oxy}-3-fluorophenyl)-N′-(4-fluorophenyl)cyclopropane-1,1-dicarboxamide]
0.048 µM | CN(C)[C@H]1CCN(C(=O)Nc2cc(Oc3ccc(NC(=O)C4(C(=O)Nc5ccc(F)cc5)CC4)cc3F)ccn2)C1 [Example 24, N-(4-{[2-({[(3S)-3-(Dimethylamino)pyrrolidin-1-yl]carbonyl}amino)pyridin-4-yl]oxy}-3-fluorophenyl)-N′-(4-fluorophenyl)cyclopropane-1,1-dicarboxamide]
0.085 µM | CN(C)CCN1CCC(N(C)C(=O)Nc2cc(Oc3ccc(NC(=O)C4(C(=O)Nc5ccc(F)cc5)CC4)c(F)c3)ccn2)CC1 [Example 25, N-(4-{[2-({[{1-[2-(Dimethylamino)ethyl]piperidin-4-yl}(methyl)amino]carbonyl}amino)pyridin-4-yl]oxy}-2-fluorophenyl)-N′-(4-fluorophenyl)cyclopropane-1,1-dicarboxamide]
